In patent publication US12611492B2, “Local drug delivery devices and methods for treating cancer” (Massachusetts Institute of Technology, priority 2013, dated 2026):

System: pancreatic xenografts
Conditions: NOD/SCID/γc, mouse, in vivo, iv
Excerpt: To quantify intratumoral drug distribution, serial sections of the tumor perpendicular to the PED were imaged by quantitative confocal microscopy. […] Tissue penetration within the tumor was quantified by line scans starting from the entry site for paclitaxel (PED—tumor/device interface; IV—vessels).

paclitaxel presence radius around the vessels: ≤ 10 micron
SMILES: CC(=O)O[C@H]1C(=O)[C@@]2(C)[C@H]([C@H](OC(=O)c3ccccc3)[C@]3(O)C[C@H](OC(=O)[C@H](O)[C@@H](NC(=O)c4ccccc4)c4ccccc4)C(C)=C1C3(C)C)[C@]1(OC(C)=O)CO[C@@H]1C[C@@H]2O [paclitaxel]
